According to patent US20230062486A1, “KRAS G12C INHIBITOR AND PHARMACEUTICAL USE THEREOF” (Betta Pharmaceuticals Co., LTD, priority 2019, published 2023):

What was measured:
MIA-PACA-2 cells = test: Cell proliferation assay, MIA-PACA-2 cells (Cell-titer Glo); type: cell-based; conditions: Homo sapiens; inhibiting MIA-PACA-2 cells, 96-well ultra-low adsorption plate, 96 h incubation, Cell-titer Glo luminescence
Procedure: (§1) Pave the MIA-PACA-2 cells into a 96-well ultra-low adsorption plate at 600 cells, 160 μL/well. After incubating overnight, compound solutions of gradient concentration was prepared, and added 40 μL of DMSO solution of the test compound of each concentration to the cells of each well. The final concentration of the compound is 10000, 2000, 400, 80, 16, 3.2, 0.64, 0.12, 0.025, 0 nM (the final concentration of DMSO is 0.25%). Incubated for 96 h at 37° C. and 5% CO2. 50 μL of Cell-titer Glo working solution was added to each well, shaked and mixed, and incubated at room temperature for 10 minutes. The multi-functional microplate reader read the luminescence value, and converted the luminescence value reading into inhibition percentage.
(§2) Inhibition percentage=(maximum value−reading)/(maximum value−minimum value)*100.
(§3) The “maximum value” was the DMSO control, the “minimum value” indicates the cell-free control group.
(§4) Graphpad Prism software was used to perform curve fitting and obtain IC50 value.
Refer to Table 2 for the IC50 data of some compounds in the examples inhibiting MIA-PACA-2 cells.

H358 cells = test: Cell proliferation assay, H358 cells (Cell-titer Glo); type: cell-based; conditions: Homo sapiens, NCI-H358; inhibiting H358 cells, 96-well ultra-low adsorption plate, 96 h incubation, Cell-titer Glo luminescence
Procedure: as §1, with “the H358” for “the MIA-PACA-2”, “cells on” for “cells into”, “plate with 2000 cells and 190” for “plate at 600 cells, 160”, “added 10” for “added 40”, “10000, 3333.3, 1111.1, 370.4, 123.5, 41.2, 13.7, 4.6, 1.5,” for “10000, 2000, 400, 80, 16, 3.2, 0.64, 0.12, 0.025,”
as §2, §3, §4
Refer to table 3 for the IC50 data of some compounds in the Examples for inhibiting H358 cells.

SMILES | IC50 (MIA-PACA-2 cells) [µM] | IC50 (H358 cells) [µM]
C=CC(=O)N1CCn2c(nc(-c3ccccc3C(C)C)c2-c2cc(F)c(-c3c(F)ccc(Cl)c3O)c(Cl)c2)C1 [Example 13, 1-(3-(2,3′-dichloro-6,6′-difluoro-2′-hydroxy-[1,1′-biphenyl]-4-yl)-2-(2-isopropylphenyl)-5,6-dihydroimidazo[1,2-a]pyrazin-7(8H)-yl)prop-2-en-1-one] | ≤ 1 | –
C=CC(=O)N1CCn2c(-c3cc(F)c(-c4c(F)ccc(Cl)c4O)c(Cl)c3)cnc2C1 [Example 15, 1-(3-(2,3′-dichloro-6,6′-difluoro-2′-hydroxy-[1,1′-biphenyl]-4-yl)-5,6-dihydroimidazo[1,2-a]pyrazin-7(8H)-yl)prop-2-en-1-one] | > 10 | –
C=CC(=O)N1CCn2c(nc(-c3ccccc3C(C)C)c2-c2cc(F)c(-c3c(O)c(Cl)cc(Cl)c3F)c(Cl)c2)C1 [Example 14, 1-(2-(2-isopropylphenyl)-3-(2,3′,5′-trichloro-2′,6-difluoro-6′-hydroxy-[1,1′-biphenyl]-4-yl)-5,6-dihydroimidazo[1,2-a]pyrazin-7(8H)-yl)prop-2-en-1-one] | 1 to 10 | –
C=CC(=O)N1CCn2c(nnc2-c2cc(F)c(-c3c(O)cccc3F)c(C=C)c2)C1 [Example 11, 1-(3-(2,2′-difluoro-6′-hydroxy-6-vinyl-[1,1′-biphenyl]-4-yl)-5,6-dihydro-[1,2,4]triazolo[4,3-a]pyrazin-7(8H)-yl)prop-2-en-1-one] | > 10 | –
C=CC(=O)N1CCn2c(nnc2-c2cc(Cl)c(-c3c(F)ccc(Cl)c3O)c(OCC(F)(F)F)c2)C1 [Example 16, 1-(3-(2,3′-dichloro-6′-fluoro-2′-hydroxy-6-(2,2,2-trifluoroethoxy)-[1,1′-biphenyl]-4-yl)-5,6-dihydro-[1,2,4]triazolo[4,3-a]pyrazin-7(8H)-yl)prop-2-en-1-one] | 1 to 10 | –
C=CC(=O)N1CCn2c(nnc2-c2cc(F)c(-c3c(O)cccc3F)c(Cl)c2)C1 [Example 1, 1-(3-(2-chloro-2′,6-difluoro-6′-hydroxy-[1,1′-biphenyl]-4-yl)-5,6-dihydro-[1,2,4]triazolo[4,3-a]pyrazin-7(8H)-yl)prop-2-en-1-one] | 1 to 10 | 1 to 10
C=CC(=O)N1CCn2c(nc(C(F)(F)F)c2-c2cc(F)c(-c3c(F)ccc(Cl)c3O)c(Cl)c2)C1 [Example 18, 1-(3-(2,3′-dichloro-6,6′-difluoro-2′-hydroxy-[1,1′-biphenyl]-4-yl)-2-(trifluoromethyl)-5,6-dihydroimidazo[1,2-a]pyrazin-7(8H)-yl)prop-2-en-1-one] | > 10 | –
C=CC(=O)N1CCn2c(cnc2-c2cc(F)c(-c3c(F)ccc(Cl)c3O)c(Cl)c2)C1 [Example 9, 1-(3-(2,3′-dichloro-6,6′-difluoro-2′-hydroxy-[1,1′-biphenyl]-4-yl)-5,6-dihydroimidazo[1,5-a]pyrazin-7(8H)-yl)prop-2-en-1-one] | 1 to 10 | –
C=CC(=O)N1CCn2c(nnc2-c2cc(F)c(-c3c(C)ccc4[nH]ncc34)c(Cl)c2)C1 [Example 5, 1-(3-(3-chloro-5-fluoro-4-(5-methyl-1H-indazol-4-yl)phenyl)-5,6-dihydro-[1,2,4]triazolo[4,3-a]pyrazin-7(8H)-yl)prop-2-en-1-one] | 1 to 10 | 1 to 10
C=CC(=O)N1CCn2c(-c3cc(F)c(-c4c(O)cccc4F)c(Cl)c3)cnc2C1 [Example 6, 1-(3-(2-chloro-2′,6-difluoro-6′-hydroxy-[1,1′-biphenyl]-4-yl)-5,6-dihydroimidazo[1,2-a]pyrazin-7(8H)-yl)prop-2-en-1-one] | ≤ 1 | 1 to 10
C=CC(=O)N1CCn2c(cnc2-c2cc(F)c(-c3c(O)cccc3F)c(Cl)c2)C1 [Example 8, 1-(3-(2-chloro-2′,6-difluoro-6′-hydroxy-[1,1′-biphenyl]-4-yl)-5,6-dihydroimidazo[1,5-a]pyrazin-7(8H)-yl)prop-2-en-1-one] | 1 to 10 | 1 to 10
C=CC(=O)N1CCn2c(cnc2-c2cc(F)c(-c3c(O)c(Cl)cc(Cl)c3F)c(Cl)c2)C1 [Example 10, 1-(3-(2,3′,5′-trichloro-2′,6-difluoro-6′-hydroxy-[1,1′-biphenyl]-4-yl)-5,6-dihydroimidazo[1,5-a]pyrazin-7(8H)-yl)prop-2-en-1-one] | > 10 | –
C=C(F)C(=O)N1CCn2c(nnc2-c2cc(F)c(-c3c(O)cccc3F)c(Cl)c2)C1 [Example 4, 1-(3-(2-chloro-2′,6-difluoro-6′-hydroxy-[1,1′-biphenyl]-4-yl)-5,6-dihydro-[1,2,4]triazolo[4,3-a]pyrazin-7(8H)-yl)-2-fluoroprop-2-en-1-one] | > 10 | > 10
C=CC(=O)N1CCn2c(nnc2-c2cc(Cl)c(-c3c(O)cccc3F)c(OCC(F)(F)F)c2)C1 [Example 17, 1-(3-(2-chloro-2′-fluoro-6′-hydroxy-6-(2,2,2-trifluoroethoxy)-[1,1′-biphenyl]-4-yl)-5,6-dihydro-[1,2,4]triazolo[4,3-a]pyrazin-7(8H)-yl)prop-2-en-1-one] | ≤ 1 | –
C=CC(=O)N1CCn2c(nnc2-c2cc(F)c(-c3c(F)ccc(Cl)c3N)c(Cl)c2)C1 [Example 7, 1-(3-(2′-amino-2,3′-dichloro-6,6′-difluoro-[1,1′-biphenyl]-4-yl)-5,6-dihydro-[1,2,4]triazolo[4,3-a]pyrazin-7(8H)-yl)prop-2-en-1-one] | > 10 | > 10
C=CC(=O)N1CCn2c(nnc2-c2cc(F)c(-c3c(O)ccc(Cl)c3F)c(Cl)c2)C1 [Example 2, 1-(3-(2,3′-dichloro-2′,6-difluoro-6′-hydroxy-[1,1′-biphenyl]-4-yl)-5,6-dihydro-[1,2,4]triazolo[4,3-a]pyrazin-7(8H)-yl)prop-2-en-1-one] | ≤ 1 | ≤ 1
C=CC(=O)N1CCn2c(nc(-c3ccccc3C(C)C)c2-c2cc(F)c(-c3c(O)cccc3F)c(Cl)c2)C1 [Example 12, 1-(3-(2-chloro-2′,6-difluoro-6′-hydroxy-[1,1′-biphenyl]-4-yl)-2-(2-isopropylphenyl)-5,6-dihydroimidazo[1,2-a]pyrazin-7(8H)-yl)prop-2-en-1-one] | > 10 | –
C=CC(=O)N1CCn2c(nnc2-c2cc(F)c(-c3c(O)c(Cl)cc(Cl)c3F)c(Cl)c2)C1 [Example 3, 1-(3-(2,3′,5′-trichloro-2′,6-difluoro-6′-hydroxy-[1,1′-biphenyl]-4-yl)-5,6-dihydro-[1,2,4]triazolo[4,3-a]pyrazin-7(8H)-yl)prop-2-en-1-one] | ≤ 1 | ≤ 1
